# From patent publication US12195482B1 (Arcus Biosciences, Inc., priority 2022, dated 2025)
# How the values were obtained:
# recombinant human TYRO3 = target: T1, recombinant human TYRO3 (Homo sapiens, UniProt Q06418); experiment: Biochemical potency, HTRF KinEASE-TK kinase assay; conditions: 1 nM TYRO3, 700 μM ATP
# T1 construct: purchased Invitrogen
# T1 sequence (Q06418 41-890): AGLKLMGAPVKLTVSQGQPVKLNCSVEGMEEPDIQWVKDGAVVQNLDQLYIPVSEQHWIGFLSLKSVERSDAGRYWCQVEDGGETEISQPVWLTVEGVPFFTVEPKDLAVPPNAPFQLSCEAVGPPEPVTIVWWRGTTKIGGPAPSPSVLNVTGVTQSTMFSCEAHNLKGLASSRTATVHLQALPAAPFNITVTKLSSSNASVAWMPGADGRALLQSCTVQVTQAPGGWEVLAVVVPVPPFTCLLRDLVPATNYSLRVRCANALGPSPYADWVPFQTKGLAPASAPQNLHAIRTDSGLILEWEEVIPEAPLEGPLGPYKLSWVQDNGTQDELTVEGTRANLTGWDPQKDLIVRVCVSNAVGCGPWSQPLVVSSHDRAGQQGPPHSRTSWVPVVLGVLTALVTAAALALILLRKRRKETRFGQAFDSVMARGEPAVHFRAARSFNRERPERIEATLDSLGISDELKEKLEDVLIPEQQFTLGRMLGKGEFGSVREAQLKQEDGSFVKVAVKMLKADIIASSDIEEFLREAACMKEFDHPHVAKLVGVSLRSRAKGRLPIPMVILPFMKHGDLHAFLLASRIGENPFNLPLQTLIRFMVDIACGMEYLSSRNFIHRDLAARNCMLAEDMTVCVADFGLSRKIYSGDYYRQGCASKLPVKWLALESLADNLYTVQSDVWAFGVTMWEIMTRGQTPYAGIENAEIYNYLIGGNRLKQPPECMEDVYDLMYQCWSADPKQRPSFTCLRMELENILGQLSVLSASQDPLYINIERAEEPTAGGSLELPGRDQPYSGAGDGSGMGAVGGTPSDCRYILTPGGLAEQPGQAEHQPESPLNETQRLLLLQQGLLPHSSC
# Procedure, shortened: (§1)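 Enzyme (AXL 5 nM; TYRO3 or MER 1 nM final) was preincubated with compound for 1 h at RT, then reacted for 2 h at RT with 800 nM biotinylated TK substrate and 700 µM ATP in HEPES pH 7.4, MgCl2, DTT, BSA, 1% DMSO. Percent activity came from the HTRF 665/620 ratio.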
# recombinant human MER = target: T2, recombinant human MER (Homo sapiens, UniProt Q12866); experiment: Biochemical potency, HTRF KinEASE-TK kinase assay; conditions: 1 nM MER, 700 μM ATP
# T2 construct: purchased Invitrogen
# T2 sequence (Q12866 21-999): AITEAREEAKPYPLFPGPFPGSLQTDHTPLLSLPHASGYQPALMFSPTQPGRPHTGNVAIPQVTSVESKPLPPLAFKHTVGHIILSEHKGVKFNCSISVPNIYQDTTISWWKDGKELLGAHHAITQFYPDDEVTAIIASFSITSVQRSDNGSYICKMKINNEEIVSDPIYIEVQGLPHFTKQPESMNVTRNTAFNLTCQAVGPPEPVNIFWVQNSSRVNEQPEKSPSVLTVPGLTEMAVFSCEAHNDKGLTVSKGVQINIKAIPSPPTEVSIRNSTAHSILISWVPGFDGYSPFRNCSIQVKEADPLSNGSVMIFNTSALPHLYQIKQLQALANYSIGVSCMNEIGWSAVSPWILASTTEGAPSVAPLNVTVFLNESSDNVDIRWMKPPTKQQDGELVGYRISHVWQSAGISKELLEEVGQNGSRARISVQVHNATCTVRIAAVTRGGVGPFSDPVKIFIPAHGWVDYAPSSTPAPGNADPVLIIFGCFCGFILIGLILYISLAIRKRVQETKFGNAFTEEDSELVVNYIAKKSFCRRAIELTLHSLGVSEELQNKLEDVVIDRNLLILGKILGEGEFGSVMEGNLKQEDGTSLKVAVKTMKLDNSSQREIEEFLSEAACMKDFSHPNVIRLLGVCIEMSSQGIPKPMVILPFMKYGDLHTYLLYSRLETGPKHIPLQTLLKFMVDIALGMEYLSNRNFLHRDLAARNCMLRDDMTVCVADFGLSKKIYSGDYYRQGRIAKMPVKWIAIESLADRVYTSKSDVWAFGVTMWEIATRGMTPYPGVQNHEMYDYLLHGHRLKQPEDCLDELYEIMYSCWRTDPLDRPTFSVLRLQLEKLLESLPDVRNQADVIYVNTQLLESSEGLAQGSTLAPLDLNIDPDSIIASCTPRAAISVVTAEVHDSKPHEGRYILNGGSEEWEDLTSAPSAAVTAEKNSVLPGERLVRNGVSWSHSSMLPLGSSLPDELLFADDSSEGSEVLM
# Procedure, shortened: as §1
IC50 (recombinant human TYRO3) [nM],IC50 (recombinant human MER) [nM],SMILES
< 100,< 100,"Cc1cccnc1-c1ccc(-c2c[nH]c3ncc(-c4ccc5c(c4)CC[C@@H](N4C6COCC4C6)CC5)cc23)cc1 [Example 1, 6-[(7S)-2-{3-[4-(3-Methylpyridin-2-yl)phenyl]-1H-pyrrolo[2,3-b]pyridin-5-yl}-6,7,8,9-tetrahydro-5H-benzo[7]annulen-7-yl]-3-oxa-6-azabicyclo[3.1.1]heptane]"
< 100,100 to 1000,"Cc1cccnc1-c1ccc(-c2n[nH]c3ncc(-c4ccc5c(c4)CC[C@@H](N4C6COCC4C6)CC5)cc23)cc1 [Example 2, 6-[(7S)-2-{3-[4-(3-Methylpyridin-2-yl)phenyl]-2H-pyrazolo[3,4-b]pyridin-5-yl}-6,7,8,9-tetrahydro-5H-benzo[7]annulen-7-yl]-3-oxa-6-azabicyclo[3.1.1]heptane]"
< 100,< 100,"COCCOc1cccnc1-c1ccc(-c2c[nH]c3ncc(-c4ccc5c(c4)CC[C@@H](N4C6COCC4C6)CC5)cc23)cc1 [Example 3, 6-[(7S)-2-(3-{4-[3-(2-Methoxyethoxy)pyridin-2-yl]phenyl}-1H-pyrrolo[2,3-b]pyridin-5-yl)-6,7,8,9-tetrahydro-5H-benzo[7]annulen-7-yl]-3-oxa-6-azabicyclo[3.1.1]heptane]"
> 1000,> 1000,"Cc1nncn1-c1ccc(-c2n[nH]c3ncc(-c4ccc5c(c4)CC[C@@H](N4C6COCC4C6)CC5)cc23)cc1 [Example 11, 6-[(7S)-2-{3-[4-(3-Methyl-4H-1,2,4-triazol-4-yl)phenyl]-1H-pyrazolo[3,4-b]pyridin-5-yl}-6,7,8,9-tetrahydro-5H-benzo[7]annulen-7-yl]-3-oxa-6-azabicyclo[3.1.1]heptane]"
100 to 1000,100 to 1000,"c1ccc(-c2ccc(-c3c[nH]c4ncc(-c5ccc6c(c5)CC[C@@H](N5C[C@@H]7C[C@H]5CO7)CC6)cc34)cc2)nc1 [Example 33, (1S,4S)-5-[(7S)-3-[3-(4-Pyridin-2-ylphenyl)-1H-pyrrolo[2,3-b]pyridin-5-yl]-6,7,8,9-tetrahydro-5H-benzo[7]annulen-7-yl]-2-oxa-5-azabicyclo[2.2.1]heptane]"
100 to 1000,100 to 1000,"Fc1cc(-c2c[nH]c3ncc(-c4ccc5c(c4)CC[C@@H](N4C6COCC4C6)CC5)cc23)ccc1-c1ccccn1 [Example 40, 6-[(7S)-2-{3-[3-Fluoro-4-(pyridin-2-yl)phenyl]-1H-pyrrolo[2,3-b]pyridin-5-yl}-6,7,8,9-tetrahydro-5H-benzo[7]annulen-7-yl]-3-oxa-6-azabicyclo[3.1.1]heptane]"
> 1000,100 to 1000,"c1cc(-c2ccc(-c3c[nH]c4ncc(-c5ccc6c(c5)CC[C@@H](N5C7COCC5C7)CC6)cc34)cc2)ccn1 [Example 41, 6-[(7S)-2-{3-[4-(Pyridin-4-yl)phenyl]-1H-pyrrolo[2,3-b]pyridin-5-yl}-6,7,8,9-tetrahydro-5H-benzo[7]annulen-7-yl]-3-oxa-6-azabicyclo[3.1.1]heptane]"
100 to 1000,100 to 1000,"Fc1cccnc1-c1ccc(-c2c[nH]c3ncc(-c4ccc5c(c4)CC[C@@H](N4C6COCC4C6)CC5)cc23)cc1 [Example 42, 6-[(7S)-2-{3-[4-(3-Fluoropyridin-2-yl)phenyl]-1H-pyrrolo[2,3-b]pyridin-5-yl}-6,7,8,9-tetrahydro-5H-benzo[7]annulen-7-yl]-3-oxa-6-azabicyclo[3.1.1]heptane]"
100 to 1000,100 to 1000,"Clc1cccnc1-c1ccc(-c2c[nH]c3ncc(-c4ccc5c(c4)CC[C@@H](N4C6COCC4C6)CC5)cc23)cc1 [Example 43, 6-[(7S)-2-{3-[4-(3-Chloropyridin-2-yl)phenyl]-1H-pyrrolo[2,3-b]pyridin-5-yl}-6,7,8,9-tetrahydro-5H-benzo[7]annulen-7-yl]-3-oxa-6-azabicyclo[3.1.1]heptane]"
100 to 1000,100 to 1000,"Clc1cc(-c2c[nH]c3ncc(-c4ccc5c(c4)CC[C@@H](N4C6COCC4C6)CC5)cc23)ccc1-c1ccccn1 [Example 44, 6-[(7S)-2-{3-[3-Chloro-4-(pyridin-2-yl)phenyl]-1H-pyrrolo[2,3-b]pyridin-5-yl}-6,7,8,9-tetrahydro-5H-benzo[7]annulen-7-yl]-3-oxa-6-azabicyclo[3.1.1]heptane]"
> 1000,> 1000,"c1cc(-n2cc(-c3c[nH]c4ncc(-c5ccc6c(c5)CC[C@@H](N5C7COCC5C7)CC6)cc34)cn2)ccn1 [Example 45, 6-[(7S)-2-{3-[1-(Pyridin-4-yl)-1H-pyrazol-4-yl]-1H-pyrrolo[2,3-b]pyridin-5-yl}-6,7,8,9-tetrahydro-5H-benzo[7]annulen-7-yl]-3-oxa-6-azabicyclo[3.1.1]heptane]"
100 to 1000,100 to 1000,"N#Cc1cccnc1-c1ccc(-c2c[nH]c3ncc(-c4ccc5c(c4)CC[C@@H](N4C6COCC4C6)CC5)cc23)cc1 [Example 46, 2-(4-{5-[(7S)-7-{3-Oxa-6-azabicyclo[3.1.1]heptan-6-yl}-6,7,8,9-tetrahydro-5H-benzo[7]annulen-2-yl]-1H-pyrrolo[2,3-b]pyridin-3-yl}phenyl)pyridine-3-carbonitrile]"
< 100,< 100,"Cc1cncnc1-c1ccc(-c2c[nH]c3ncc(-c4ccc5c(c4)CC[C@@H](N4C6COCC4C6)CC5)cc23)cc1 [Example 47, 6-[(7S)-2-{3-[4-(5-Methylpyrimidin-4-yl)phenyl]-1H-pyrrolo[2,3-b]pyridin-5-yl}-6,7,8,9-tetrahydro-5H-benzo[7]annulen-7-yl]-3-oxa-6-azabicyclo[3.1.1]heptane]"
100 to 1000,100 to 1000,"Cc1nccnc1-c1ccc(-c2c[nH]c3ncc(-c4ccc5c(c4)CC[C@@H](N4C6COCC4C6)CC5)cc23)cc1 [Example 48, 6-[(7S)-2-{3-[4-(3-Methylpyrazin-2-yl)phenyl]-1H-pyrrolo[2,3-b]pyridin-5-yl}-6,7,8,9-tetrahydro-5H-benzo[7]annulen-7-yl]-3-oxa-6-azabicyclo[3.1.1]heptane]"
< 100,< 100,"Cc1ccnnc1-c1ccc(-c2c[nH]c3ncc(-c4ccc5c(c4)CC[C@@H](N4C6COCC4C6)CC5)cc23)cc1 [Example 49, 6-[(7S)-2-{3-[4-(4-Methylpyridazin-3-yl)phenyl]-1H-pyrrolo[2,3-b]pyridin-5-yl}-6,7,8,9-tetrahydro-5H-benzo[7]annulen-7-yl]-3-oxa-6-azabicyclo[3.1.1]heptane]"
100 to 1000,100 to 1000,"Cc1cnc(-c2ccc(-c3c[nH]c4ncc(-c5ccc6c(c5)CC[C@@H](N5C7COCC5C7)CC6)cc34)cc2)c(C)n1 [Example 50, 6-[(7S)-2-{3-[4-(3,5-Dimethylpyrazin-2-yl)phenyl]-1H-pyrrolo[2,3-b]pyridin-5-yl}-6,7,8,9-tetrahydro-5H-benzo[7]annulen-7-yl]-3-oxa-6-azabicyclo[3.1.1]heptane]"
< 100,< 100,"Cc1ccnnc1-c1ccc(-c2c[nH]c3ncc(-c4ccc5c(c4)CC[C@@](C)(N4CCC[C@H]4C)CC5)cc23)cc1 [Example 51, 4-methyl-3-(4-{5-[(7S)-7-Methyl-7-[(2R)-2-methylpyrrolidin-1-yl]-6,7,8,9-tetrahydro-5H-benzo[7]annulen-2-yl]-1H-pyrrolo[2,3-b]pyridin-3-yl}phenyl)pyridazine]"
